Experimental data: US20110039762A1, “TARGETED ANTIMICROBIAL MOIETIES” (C3 JIAN, INC., priority 2009, published 2011)
“Also recorded” adds a separate entry of the source.

Legend:
[1] = tested on: B. subtilis; experiment: Kill or inhibit growth/proliferation; morphology, biofilm and growth disruption (Tables 5, 6); format: cell-based, Bacillus subtilis; design: key: A: Peptide aggregates; B: Less hyphal formation; Clumps; Diffuse clumps and small polyps; F: Diffuse growth; H: Thin; I: Growth inhibition; Microcolony formation; Rippled; Small polyps; Thick; W: Halo formation on top, microlonies on bottom; further: test concentration or dose not given here
[2] = tested on: S. pneumoniae; experiment: as above; format: cell-based, Streptococcus pneumoniae; design: key: A: Peptide aggregates; B: Less hyphal formation; Clumps; Diffuse clumps and small polyps; F: Diffuse growth; H: Thin; I: Growth inhibition; Microcolony formation; Rippled; Small polyps; Thick; W: Halo formation on top, microlonies on bottom; further: test concentration or dose not given here
[3] = tested on: microorganisms (e.g., bacteria, yeasts, fungi); experiment: Targeting peptide binding to target microorganisms (Table 3); details: preferably 1x PBS; for Target(s) (microorganisms bound by the targeting peptide): peptide binding in aqueous buffers varied by peptide solubility
[4] = tested on: microorganisms; experiment: Peptides having multiple activities (targeting/binding, antimicrobial, growth or phenotype altering)
From the text: In certain embodiments, peptides described herein can have multiple activities. Thus for example, a peptide can have both binding/targeting activity and antimicrobial activity. Such peptides can be used, e.g., in a chimeric construct, for any or all of these properties. Thus, for example, a peptide designated “B” in Table 8 can be used as a targeting peptide. If it is also designated G or M it can also be used for antimicrobial activity.

[5] = tested on: C. jejuni; experiment: Kill or inhibit growth/proliferation; morphology, biofilm and growth disruption (Tables 5, 6); format: cell-based, Campylobacter jejuni; design: key: A: Peptide aggregates; B: Less hyphal formation; Clumps; Diffuse clumps and small polyps; F: Diffuse growth; H: Thin; I: Growth inhibition; Microcolony formation; Rippled; Small polyps; Thick; W: Halo formation on top, microlonies on bottom; further: test concentration or dose not given here
[6] = tested on: S. epidermidis; experiment: as above; format: cell-based, Staphylococcus epidermidis; design: key: A: Peptide aggregates; B: Less hyphal formation; Clumps; Diffuse clumps and small polyps; F: Diffuse growth; H: Thin; I: Growth inhibition; Microcolony formation; Rippled; Small polyps; Thick; W: Halo formation on top, microlonies on bottom; further: test concentration or dose not given here
[7] = tested on: MRSA; experiment: as above; format: cell-based, Methicillin-resistant Staphylococcus aureus; design: key: A: Peptide aggregates; B: Less hyphal formation; Clumps; Diffuse clumps and small polyps; F: Diffuse growth; H: Thin; I: Growth inhibition; Microcolony formation; Rippled; Small polyps; Thick; W: Halo formation on top, microlonies on bottom; further: test concentration or dose not given here
[8] = microorganism the targeting peptide binds, binding in aqueous buffers varied by peptide solubility
[9] = microorganism(s) the targeting peptide binds, binding in aqueous buffers depending on peptide solubility
[10] = microorganism(s) the targeting peptide binds, peptide binding conducted in aqueous buffers varied by peptide solubility

## PF-002: peptide having multiple activities (chain 1 NDDAQ; chain 2 NDDAQ; Peptide with targeting and/or antimicrobial activity)
[1]
  Organism, effect: B. subtilis (R)
[2]
  Organism, effect: S. pneumoniae (H)
[3]; [8]
  Target(s): S. epidermidis; also recorded: P. mirabilis; also recorded: C. albicans; also recorded: C. jeikeium; also recorded: C. jejuni
[4]
  Activities: G B

## PF-008: peptide having multiple activities (chain 1 MIEIGSIAYLNGGSKKYNHILNQENR; chain 2 MIEIGSIAYLNGGSKKYNHILNQENR; Peptide with targeting and/or antimicrobial activity)
[1]
  Organism, effect: B. subtilis (D)
[5]
  Organism, effect: C. jejuni (R)
[3]; [8]
  Target(s): S. epidermidis and M. luteus and MRSA and C. jejuni
[4]
  Activities: G B

## PF-069: peptide having multiple activities (FDPVPLKKDKSASKHSHKHNH; Peptide with targeting and/or antimicrobial activity)
[1]
  Organism, effect: B. subtilis (D)
[5]
  Organism, effect: C. jejuni (R)
[3]; [8]
  Target(s): E. faecalis; also recorded: C. jejuni
[4]
  Activities: G B

## PF-292: peptide having multiple activities (SFVSTTVRLIFEESKRYKF; Peptide with targeting and/or antimicrobial activity)
[1]
  Organism, effect: B. subtilis (C)
[6]
  Organism, effect: S. epidermidis (C)
[3]; [9]
  Target(s): S. epidermidis; also recorded: B. subtilis; also recorded: B. fragilis
[4]
  Activities: G B

## PF-296 (GAFGMPSIKTNTICGEKGKFISACDAWLSNLK; Peptide with targeting and/or antimicrobial activity)
[1]
  Organism, effect: B. subtilis (C)
[6]
  Organism, effect: S. epidermidis (C)

## PF-297: peptide having multiple activities (ISKGIDDIVYVINKILSIGNIFKIIKRK; Peptide with targeting and/or antimicrobial activity)
[1]
  Organism, effect: B. subtilis (C)
[6]
  Organism, effect: S. epidermidis (C)
[3]; [9]
  Target(s): S. epidermidis; also recorded: B. subtilis; also recorded: B. fragilis
[4]
  Activities: G B

## PF-301: peptide having multiple activities (GIVLIGLKLIPLLANVLN; Peptide with targeting and/or antimicrobial activity)
[1]
  Organism, effect: B. subtilis (C)
[6]
  Organism, effect: S. epidermidis (C)
[3]; [9]
  Target(s): C. difficile
[4]
  Activities: G B

## PF-318 (MGRHLWNPSYFVATVSENTEEQIRKYINNQKKQVK; Peptide with targeting and/or antimicrobial activity)
[1]
  Organism, effect: B. subtilis (C)
[6]
  Organism, effect: S. epidermidis (C)

## PF-335 (AAYPIEDWSDWYEDFFIMLSNI; Peptide with targeting and/or antimicrobial activity)
[1]
  Organism, effect: B. subtilis (C)
[6]
  Organism, effect: S. epidermidis (C)

## PF-339 (KKIDILINKYMYLSK; Peptide with targeting and/or antimicrobial activity)
[1]
  Organism, effect: B. subtilis (C)
[6]
  Organism, effect: S. epidermidis (C)

## PF-342 (AFSGVYKTLIVYTRRK; Peptide with targeting and/or antimicrobial activity)
[1]
  Organism, effect: B. subtilis (C)
[6]
  Organism, effect: S. epidermidis (C)

## PF-549: peptide having multiple activities (chain 1 TGIGPIARPIEHGLDS; chain 2 TGIGPIARPIEHGLDS; Peptide with targeting and/or antimicrobial activity)
[1]
  Organism, effect: B. subtilis (D)
[7]
  Organism, effect: MRSA (C)
[3]; [10]
  Target(s): E. coli; also recorded: C. albicans; also recorded: S. pneumoniae; also recorded: C. jeikeium
[4]
  Activities: G B

## PF-557: peptide having multiple activities (chain 1 AANKAREQAAAEAKRKAEEQAR; chain 2 AANKAREQAAAEAKRKAEEQAR; Peptide with targeting and/or antimicrobial activity)
[1]
  Organism, effect: B. subtilis (D)
[3]; [10]
  Target(s): S. pneumoniae
[4]
  Activities: G B

## PF-559: peptide having multiple activities (chain 1 SRPGKPGGVSIDVSRDRQDILSNYP; chain 2 SRPGKPGGVSIDVSRDRQDILSNYP; Peptide with targeting and/or antimicrobial activity)
[1]
  Organism, effect: B. subtilis (C)
[5]
  Organism, effect: C. jejuni (A)
[3]; [10]
  Target(s): S. epidermidis; also recorded: M. luteus; also recorded: C. albicans; also recorded: C. jeikeium; also recorded: C. jejuni
[4]
  Activities: G B

## PF-561 (ESLEADVQAELDTEAAKYPALPASF; Peptide with targeting and/or antimicrobial activity)
[1]
  Organism, effect: B. subtilis (D)
[7]
  Organism, effect: MRSA (M)

## PF-563: peptide having multiple activities (chain 1 RPELDNELDVVQNSASLDKLQASYN; chain 2 RPELDNELDVVQNSASLDKLQASYN; Peptide with targeting and/or antimicrobial activity)
[1]
  Organism, effect: B. subtilis (D)
[2]
  Organism, effect: S. pneumoniae (H)
[5]
  Organism, effect: C. jejuni (H)
[3]; [10]
  Target(s): S. epidermidis; also recorded: M. luteus; also recorded: C. jeikeium
[4]
  Activities: G B

## PF-565 (RAEAEAQRQAEADAKRKAEEAARL; Peptide with targeting and/or antimicrobial activity)
[1]
  Organism, effect: B. subtilis (D)
[7]
  Organism, effect: MRSA (C)

## PF-569: peptide having multiple activities (chain 1 KSKISEYTEKEFLEFVEDIYTNNK; chain 2 KSKISEYTEKEFLEFVEDIYTNNK; Peptide with targeting and/or antimicrobial activity)
[1]
  Organism, effect: B. subtilis (D)
[3]; [10]
  Target(s): M. luteus; also recorded: P. mirabilis; also recorded: S. pneumoniae; also recorded: E. faecalis; also recorded: C. jeikeium
[4]
  Activities: G B

## PF-572: peptide having multiple activities (chain 1 WRASKGLPGFKAG; chain 2 WRASKGLPGFKAG; Peptide with targeting and/or antimicrobial activity)
[1]
  Organism, effect: B. subtilis (D)
[2]
  Organism, effect: S. pneumoniae (R)
[3]; [10]
  Target(s): S. epidermidis; also recorded: M. luteus; also recorded: E. coli; also recorded: S. pneumoniae; also recorded: C. jeikeium
[4]
  Activities: G B

## PF-655: peptide having multiple activities (chain 1 DAPCFDDQFGDLKCQMC; chain 2 DAPCFDDQFGDLKCQMC; Peptide with targeting and/or antimicrobial activity)
[1]
  Organism, effect (morphology, biofilm and growth disruption): B. subtilis (H)
[7]
  Organism, effect (morphology, biofilm and growth disruption): MRSA (M)
[6]
  Organism, effect (morphology, biofilm and growth disruption): S. epidermidis (R)
[2]
  Organism, effect (morphology, biofilm and growth disruption): S. pneumoniae (H)
[3]
  Target(s) (microorganisms bound by the targeting peptide): M. smegmatis
[4]
  Activities: G B

## PF-659 (chain 1 TVIST; chain 2 TVIST; Peptide with targeting and/or antimicrobial activity)
[1]
  Organism, effect (morphology, biofilm and growth disruption): B. subtilis (H)
[7]
  Organism, effect (morphology, biofilm and growth disruption): MRSA (R)
[6]
  Organism, effect (morphology, biofilm and growth disruption): S. epidermidis (M)
[2]
  Organism, effect (morphology, biofilm and growth disruption): S. pneumoniae (C)
[3]
  Target(s) (microorganisms bound by the targeting peptide): Mycobacteria spp

## PF-670 (chain 1 TVIVAPMHSGV; chain 2 TVIVAPMHSGV; Peptide with targeting and/or antimicrobial activity)
[1]
  Organism, effect (morphology, biofilm and growth disruption): B. subtilis (H)
[2]
  Organism, effect (morphology, biofilm and growth disruption): S. pneumoniae (H)

## SIGSMIGMYSFRHKTKHIKFTFGIPFILFLQFLLVYFYILK [PF-319]
[1]
  Organism, effect: B. subtilis (C)
[6]
  Organism, effect: S. epidermidis (C)
[3]; [9]
  Target(s): S. epidermidis; also recorded: B. subtilis; also recorded: C. difficile
[4]
  Activities: G B
